# Tested on: not listed separately
# Experiment: Neuroprotective activity against H2O2-induced neurotoxicity in Sprague-Dawley rat hippocampal neuron assessed as cell survival rate at 1 uM incubated for 24 hrs in presence of 150 uM H2O2 by MTT assay (reference value: 41.6 to 43.2 %)
# Assay type: functional, Hippocampal neurone
# Conditions: not given
row,SMILES,Activity [%]
1,COC(=O)C1=CN(C(C)C)C(=O)[C@@H]2C(CN3CCN(Cc4ccc([N+](=O)[O-])cc4)CC3)=CC[C@H]12.Cl.Cl,73.8
2,CC(=O)N[C@@H](CS)C(=O)O [ACETYLCYSTEINE],69.5
3,COC(=O)C1=CN(C(C)C)C(=O)[C@@H]2C(CN3CCN(Cc4ccc(F)cc4)CC3)=CC[C@H]12.Cl.Cl,67.3
4,COC(=O)C1=CNC(=O)[C@@H]2C(CO)=CC[C@H]12,65.8
5,COC(=O)C1=CN(C)C(=O)[C@@H]2C(CN3CCN(Cc4ccc(F)cc4)CC3)=CC[C@H]12.Cl.Cl,70.3
6,COC(=O)C1=CN(C(C)C)C(=O)[C@@H]2C(CN3CCN(Cc4ccccc4)CC3)=CC[C@H]12.Cl.Cl,71

# Tested on: Hippocampal neurone
# Experiment: Neuroprotective activity against amyloid beta (1 to 42)-induced neurotoxicity in Sprague-Dawley rat hippocampal neuron assessed as increase in cell survival rate incubated for 48 hrs in presence of amyloid beta (1 to 42) by CellTiter Glo-based luminescence assay
# Assay type: functional
# Conditions: not given
row,SMILES,Activity
1,COC(=O)C1=CN(C(C)C)C(=O)[C@@H]2C(CN3CCN(Cc4ccc([N+](=O)[O-])cc4)CC3)=CC[C@H]12.Cl.Cl,Dose-dependent effect
2,COC(=O)C1=CN(C(C)C)C(=O)[C@@H]2C(CN3CCN(Cc4ccc(F)cc4)CC3)=CC[C@H]12.Cl.Cl,Dose-dependent effect
3,COC(=O)C1=CN(C)C(=O)[C@@H]2C(CN3CCN(Cc4ccc(F)cc4)CC3)=CC[C@H]12.Cl.Cl,Dose-dependent effect
4,COC(=O)C1=CN(C(C)C)C(=O)[C@@H]2C(CN3CCN(Cc4ccccc4)CC3)=CC[C@H]12.Cl.Cl,Dose-dependent effect

# Tested on: not listed separately
# Experiment: Cytotoxicity against Sprague-Dawley rat cortical neuron assessed as cell survival at 100 uM incubated for 48 hrs by CellTiter Glo-based luminescence assay relative to control
# Set-up: species or system Cortical neurone
# Conditions: rat cortical neurons, read-out: Activity
row,SMILES,"viability at 48 h, 100 µM [%]"
1,COC(=O)C1=CN(C(C)C)C(=O)[C@@H]2C(CN3CCN(Cc4ccc([N+](=O)[O-])cc4)CC3)=CC[C@H]12.Cl.Cl,78.5
2,COC(=O)C1=CN(C(C)C)C(=O)[C@@H]2C(CN3CCN(Cc4ccc(F)cc4)CC3)=CC[C@H]12.Cl.Cl,80.9
3,COC(=O)C1=CN(C)C(=O)[C@@H]2C(CN3CCN(Cc4ccc(F)cc4)CC3)=CC[C@H]12.Cl.Cl,78.5
4,COC(=O)C1=CN(C(C)C)C(=O)[C@@H]2C(CN3CCN(Cc4ccccc4)CC3)=CC[C@H]12.Cl.Cl,82.5

# Tested on: not listed separately
# Experiment: Cytotoxicity against Sprague-Dawley rat cortical neuron assessed as cell survival at 3.7 uM incubated for 48 hrs by CellTiter Glo-based luminescence assay relative to control
# Set-up: species or system Cortical neurone
# Conditions: rat cortical neurons, read-out: Activity
row,SMILES,"viability at 48 h, 3.7 µM [%]"
1,COC(=O)C1=CN(C(C)C)C(=O)[C@@H]2C(CN3CCN(Cc4ccc([N+](=O)[O-])cc4)CC3)=CC[C@H]12.Cl.Cl,97.2
2,COC(=O)C1=CN(C(C)C)C(=O)[C@@H]2C(CN3CCN(Cc4ccc(F)cc4)CC3)=CC[C@H]12.Cl.Cl,94.2
3,COC(=O)C1=CN(C)C(=O)[C@@H]2C(CN3CCN(Cc4ccc(F)cc4)CC3)=CC[C@H]12.Cl.Cl,98.4
4,COC(=O)C1=CN(C(C)C)C(=O)[C@@H]2C(CN3CCN(Cc4ccccc4)CC3)=CC[C@H]12.Cl.Cl,90.7

# Tested on: Cortical neurone
# Experiment: Neuroprotective activity against OGD-induced neurotoxicity in Sprague-Dawley rat cortical neuron assessed as cell survival rate at 0.1 uM pretreated for 24 hrs followed by incubation in oxygen and glucose deprivation medium for 2 hrs followed by exposure to reoxygenation by re-incubating in normoxia condition for 24 hrs by MTT assay (reference value: 58.5 to 61.2 %)
# Assay type: functional
# Conditions: not given
row,SMILES,Activity [%]
1,COC(=O)C1=CN(C(C)C)C(=O)[C@@H]2C(CN3CCN(Cc4ccc(C)cc4)CC3)=CC[C@H]12.Cl.Cl,59
2,COC(=O)C1=CN(C(C)C)C(=O)[C@@H]2C(CN3CCN(Cc4ccc([N+](=O)[O-])cc4)CC3)=CC[C@H]12.Cl.Cl,67.1
3,COC(=O)C1=CN(C)C(=O)[C@@H]2C(CN3CCN(Cc4ccc([N+](=O)[O-])cc4)CC3)=CC[C@H]12.Cl.Cl,60
4,COC(=O)C1=CN(C(C)C)C(=O)[C@@H]2C(CN3CCN(Cc4ccc(F)cc4)CC3)=CC[C@H]12.Cl.Cl,65.4
5,COC(=O)C1=CN(C(C)C)C(=O)[C@@H]2C(CN3CCN(Cc4ccc(Cl)cc4)CC3)=CC[C@H]12.Cl.Cl,58.7
6,COC(=O)C1=CNC(=O)[C@@H]2C(CO)=CC[C@H]12,59
7,COC(=O)C1=CN(C)C(=O)[C@@H]2C(CN3CCN(Cc4ccc(F)cc4)CC3)=CC[C@H]12.Cl.Cl,63.8
8,COC(=O)C1=CN(C)C(=O)[C@@H]2C(CN3CCN(Cc4ccc(Cl)cc4)CC3)=CC[C@H]12.Cl.Cl,62.7
9,COC(=O)C1=CN(C(C)C)C(=O)[C@@H]2C(CN3CCN(Cc4ccccc4)CC3)=CC[C@H]12.Cl.Cl,64.4

# Tested on: Hippocampal neurone
# Experiment: Neuroprotective activity against H2O2-induced neurotoxicity in Sprague-Dawley rat hippocampal neuron assessed as increase in cell survival rate incubated for 24 hrs in presence of 150 uM H2O2 by MTT assay
# Assay type: functional, cell-based
# Conditions: not given
row,SMILES,Activity
1,COC(=O)C1=CN(C(C)C)C(=O)[C@@H]2C(CN3CCN(Cc4ccc([N+](=O)[O-])cc4)CC3)=CC[C@H]12.Cl.Cl,Dose-dependent effect
2,COC(=O)C1=CN(C(C)C)C(=O)[C@@H]2C(CN3CCN(Cc4ccc(F)cc4)CC3)=CC[C@H]12.Cl.Cl,Dose-dependent effect
3,COC(=O)C1=CN(C)C(=O)[C@@H]2C(CN3CCN(Cc4ccc(F)cc4)CC3)=CC[C@H]12.Cl.Cl,Dose-dependent effect
4,COC(=O)C1=CN(C(C)C)C(=O)[C@@H]2C(CN3CCN(Cc4ccccc4)CC3)=CC[C@H]12.Cl.Cl,Dose-dependent effect

# Tested on: Cortical neurone
# Experiment: Neuroprotective activity against OGD-induced neurotoxicity in Sprague-Dawley rat cortical neuron assessed as cell survival rate at 10 uM pretreated for 24 hrs followed by incubation in oxygen and glucose deprivation medium for 2 hrs followed by exposure to reoxygenation by re-incubating in normoxia condition for 24 hrs by MTT assay (reference value: 58.5 to 61.2 %)
# Assay type: functional
# Conditions: not given
row,SMILES,Activity [%]
1,COC(=O)C1=CN(C(C)C)C(=O)[C@@H]2C(CN3CCN(Cc4ccc(C)cc4)CC3)=CC[C@H]12.Cl.Cl,85.7
2,COC(=O)C1=CN(C(C)C)C(=O)[C@@H]2C(CN3CCN(Cc4ccc([N+](=O)[O-])cc4)CC3)=CC[C@H]12.Cl.Cl,87.6
3,COC(=O)C1=CN(C)C(=O)[C@@H]2C(CN3CCN(Cc4ccc([N+](=O)[O-])cc4)CC3)=CC[C@H]12.Cl.Cl,74.3
4,COC(=O)C1=CN(C(C)C)C(=O)[C@@H]2C(CN3CCN(Cc4ccc(F)cc4)CC3)=CC[C@H]12.Cl.Cl,86.5
5,COC(=O)C1=CN(C(C)C)C(=O)[C@@H]2C(CN3CCN(Cc4ccc(Cl)cc4)CC3)=CC[C@H]12.Cl.Cl,71.9
6,COC(=O)C1=CNC(=O)[C@@H]2C(CO)=CC[C@H]12,79.3
7,COC(=O)C1=CN(C)C(=O)[C@@H]2C(CN3CCN(Cc4ccc(F)cc4)CC3)=CC[C@H]12.Cl.Cl,85.7
8,COC(=O)C1=CN(C)C(=O)[C@@H]2C(CN3CCN(Cc4ccc(Cl)cc4)CC3)=CC[C@H]12.Cl.Cl,80.1
9,COC(=O)C1=CN(C(C)C)C(=O)[C@@H]2C(CN3CCN(Cc4ccccc4)CC3)=CC[C@H]12.Cl.Cl,84.5

# Tested on: not listed separately
# Experiment: Cytotoxicity against Sprague-Dawley rat cortical neuron assessed as cell survival at 33.3 uM incubated for 48 hrs by CellTiter Glo-based luminescence assay relative to control
# Set-up: species or system Cortical neurone
# Conditions: rat cortical neurons, read-out: Activity
row,SMILES,"viability at 48 h, 33.3 µM [%]"
1,COC(=O)C1=CN(C(C)C)C(=O)[C@@H]2C(CN3CCN(Cc4ccc([N+](=O)[O-])cc4)CC3)=CC[C@H]12.Cl.Cl,88.7
2,COC(=O)C1=CN(C(C)C)C(=O)[C@@H]2C(CN3CCN(Cc4ccc(F)cc4)CC3)=CC[C@H]12.Cl.Cl,88.4
3,COC(=O)C1=CN(C)C(=O)[C@@H]2C(CN3CCN(Cc4ccc(F)cc4)CC3)=CC[C@H]12.Cl.Cl,85.1
4,COC(=O)C1=CN(C(C)C)C(=O)[C@@H]2C(CN3CCN(Cc4ccccc4)CC3)=CC[C@H]12.Cl.Cl,91.7

# Tested on: not listed separately
# Experiment: Neuroprotective activity against H2O2-induced neurotoxicity in Sprague-Dawley rat hippocampal neuron assessed as cell survival rate at 0.1 uM incubated for 24 hrs in presence of 150 uM H2O2 by MTT assay (reference value: 41.6 to 43.2 %)
# Assay type: functional, Hippocampal neurone
# Conditions: not given
row,SMILES,Activity [%]
1,COC(=O)C1=CN(C(C)C)C(=O)[C@@H]2C(CN3CCN(Cc4ccc([N+](=O)[O-])cc4)CC3)=CC[C@H]12.Cl.Cl,57.6
2,CC(=O)N[C@@H](CS)C(=O)O [ACETYLCYSTEINE],62.6
3,COC(=O)C1=CN(C(C)C)C(=O)[C@@H]2C(CN3CCN(Cc4ccc(F)cc4)CC3)=CC[C@H]12.Cl.Cl,60.4
4,COC(=O)C1=CNC(=O)[C@@H]2C(CO)=CC[C@H]12,59
5,COC(=O)C1=CN(C)C(=O)[C@@H]2C(CN3CCN(Cc4ccc(F)cc4)CC3)=CC[C@H]12.Cl.Cl,62.5
6,COC(=O)C1=CN(C(C)C)C(=O)[C@@H]2C(CN3CCN(Cc4ccccc4)CC3)=CC[C@H]12.Cl.Cl,60.3

# Tested on: not listed separately
# Experiment: Cytotoxicity against Sprague-Dawley rat cortical neuron assessed as cell survival at 11.1 uM incubated for 48 hrs by CellTiter Glo-based luminescence assay relative to control
# Set-up: species or system Cortical neurone
# Conditions: rat cortical neurons, read-out: Activity
row,SMILES,"viability at 48 h, 11.1 µM [%]"
1,COC(=O)C1=CN(C(C)C)C(=O)[C@@H]2C(CN3CCN(Cc4ccc([N+](=O)[O-])cc4)CC3)=CC[C@H]12.Cl.Cl,99.7
2,COC(=O)C1=CN(C(C)C)C(=O)[C@@H]2C(CN3CCN(Cc4ccc(F)cc4)CC3)=CC[C@H]12.Cl.Cl,98.4
3,COC(=O)C1=CN(C)C(=O)[C@@H]2C(CN3CCN(Cc4ccc(F)cc4)CC3)=CC[C@H]12.Cl.Cl,96.2
4,COC(=O)C1=CN(C(C)C)C(=O)[C@@H]2C(CN3CCN(Cc4ccccc4)CC3)=CC[C@H]12.Cl.Cl,96.3

# Tested on: Cortical neurone
# Experiment: Neuroprotective activity against OGD-induced neurotoxicity in Sprague-Dawley rat cortical neuron assessed as cell survival rate at 1 uM pretreated for 24 hrs followed by incubation in oxygen and glucose deprivation medium for 2 hrs followed by exposure to reoxygenation by re-incubating in normoxia condition for 24 hrs by MTT assay (reference value: 58.5 to 61.2 %)
# Assay type: functional
# Conditions: not given
row,SMILES,Activity [%]
1,COC(=O)C1=CN(C(C)C)C(=O)[C@@H]2C(CN3CCN(Cc4ccc(C)cc4)CC3)=CC[C@H]12.Cl.Cl,73.1
2,COC(=O)C1=CN(C(C)C)C(=O)[C@@H]2C(CN3CCN(Cc4ccc([N+](=O)[O-])cc4)CC3)=CC[C@H]12.Cl.Cl,74.3
3,COC(=O)C1=CN(C)C(=O)[C@@H]2C(CN3CCN(Cc4ccc([N+](=O)[O-])cc4)CC3)=CC[C@H]12.Cl.Cl,66.7
4,COC(=O)C1=CN(C(C)C)C(=O)[C@@H]2C(CN3CCN(Cc4ccc(F)cc4)CC3)=CC[C@H]12.Cl.Cl,74.4
5,COC(=O)C1=CN(C(C)C)C(=O)[C@@H]2C(CN3CCN(Cc4ccc(Cl)cc4)CC3)=CC[C@H]12.Cl.Cl,64.3
6,COC(=O)C1=CNC(=O)[C@@H]2C(CO)=CC[C@H]12,69.4
7,COC(=O)C1=CN(C)C(=O)[C@@H]2C(CN3CCN(Cc4ccc(F)cc4)CC3)=CC[C@H]12.Cl.Cl,71.3
8,COC(=O)C1=CN(C)C(=O)[C@@H]2C(CN3CCN(Cc4ccc(Cl)cc4)CC3)=CC[C@H]12.Cl.Cl,71
9,COC(=O)C1=CN(C(C)C)C(=O)[C@@H]2C(CN3CCN(Cc4ccccc4)CC3)=CC[C@H]12.Cl.Cl,71.8

# Tested on: not listed separately
# Experiment: Neuroprotective activity against H2O2-induced neurotoxicity in Sprague-Dawley rat hippocampal neuron assessed as cell survival rate at 10 uM incubated for 24 hrs in presence of 150 uM H2O2 by MTT assay (reference value: 41.6 to 43.2 %)
# Assay type: functional, Hippocampal neurone
# Conditions: not given
row,SMILES,Activity [%]
1,COC(=O)C1=CN(C(C)C)C(=O)[C@@H]2C(CN3CCN(Cc4ccc([N+](=O)[O-])cc4)CC3)=CC[C@H]12.Cl.Cl,82.1
2,CC(=O)N[C@@H](CS)C(=O)O [ACETYLCYSTEINE],79.1
3,COC(=O)C1=CN(C(C)C)C(=O)[C@@H]2C(CN3CCN(Cc4ccc(F)cc4)CC3)=CC[C@H]12.Cl.Cl,72.4
4,COC(=O)C1=CNC(=O)[C@@H]2C(CO)=CC[C@H]12,70.9
5,COC(=O)C1=CN(C)C(=O)[C@@H]2C(CN3CCN(Cc4ccc(F)cc4)CC3)=CC[C@H]12.Cl.Cl,78.5
6,COC(=O)C1=CN(C(C)C)C(=O)[C@@H]2C(CN3CCN(Cc4ccccc4)CC3)=CC[C@H]12.Cl.Cl,76.2

# From ChEMBL document CHEMBL4373660, “The synthesis and biological evaluation of novel gardenamide A derivatives as multifunctional neuroprotective agents” (Medchemcomm, 2019)
